# From US20190239511A1, “Synergistic Combinations Of Monochloramine And Peroxide Compound, And Methods Of Using The Same For Microbial Control” (Buckman Laboratories International, Inc., priority 2018, published 2019)
# System: bacteria in 35 wt % corn slurry solution
# Assay: Bacterial growth control in corn slurry, bacteria count and reduction (Example 2, Table 1 and FIG. 5)
# Type: cell-based
# Protocol: The effect of combined amounts of hydrogen peroxide and monochloramine at other tested addition amounts on bacterial growth control and their addition timing was further studied using laboratory experiments. For this additional study, laboratory experiments were performed using hydrogen peroxide at dosages of 100 ppm and 200 ppm, and monochloramine (“Oxamine”) at dosages of 25 ppm, 50 ppm, 75 ppm, and 100 ppm. The time between peroxide and monochloramine addition was up to 10 minutes (i.e., 0-10 minutes). All experiments were carried out with 35 wt % corn slurry solution.
Structure (SMILES),% Reduction (100 ppm H2O2 alone) [%],Bacteria Count (100 ppm H2O2 alone),% Reduction (200 ppm H2O2 alone) [%],Bacteria Count (200 ppm H2O2 alone),% Reduction (25 ppm Oxamine alone) [%],Bacteria Count (25 ppm Oxamine alone),% Reduction (50 ppm Oxamine alone) [%],Bacteria Count (50 ppm Oxamine alone),% Reduction (75 ppm Oxamine alone) [%],Bacteria Count (75 ppm Oxamine alone),% Reduction (100 ppm Oxamine alone) [%],Bacteria Count (100 ppm Oxamine alone)
"OO [H2O2, hydrogen peroxide]",0.00,5.E+06,18.37,4.E+06,,,,,,,,
"NCl [Oxamine, monochloramine]",,,,,98.99,5.E+04,99.93,4.E+03,99.97,1.E+03,99.98,9.E+02
